Data from patent publication US9521846B2, “Template-fixed peptidomimetics with antimicrobial activity” (priority 2006, dated 2016).
Converted amounts (≈) assume the structure as drawn. Like-named read-outs stand apart in the source and are kept apart here. Non-standard residues stand in square brackets, D forms with d. Residues, ends and D or L forms follow the SMILES beside them. dDab = NCC[C@@H](N)C(=O)O; Orn = NCCC[C@H](N)C(=O)O; Dab = NCC[C@H](N)C(=O)O

Key:
[1] = Plasma stability, human plasma; format: in vitro ADME
[2] = test system: Pseudomonas aeruginosa P8191900; format: cell-based
Outline: (§1)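 Antimicrobial values come from two-fold serial dilutions of peptide in Mueller-Hinton broth plus 0.02% BSA, combined with an equal volume of inoculum at approximately 10^6 CFU/ml. The approach followed standard NCCLS broth microdilution, slightly modified.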

[3] = test system: Pseudomonas aeruginosa IMP 1 Livermore 3140; format: cell-based
Outline: as §1

[4] = test system: Pseudomonas aeruginosa P1021913; format: cell-based
Outline: as §1

[5] = test system: Pseudomonas aeruginosa P1021903; format: cell-based
Outline: as §1

[6] = test system: human red blood cells (hRBC); experiment: Hemolysis; format: cell-based
[7] = Plasma stability, rat plasma; format: in vitro ADME
HELA cells (Acc57) = experiment: Cytotoxicity assay, MTT reduction (LC 50, GI 50); format: cell-based
Outline: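 HeLa cells seeded at 7.0×10^3 cells/well, grown 24 h, then exposed to peptides at 12.5, 25 and 50 μM in triplicate for 48 h at 37 °C; MTT (0.5 mg/ml, 2 h), A595 read. Percent growth was taken relative to time-zero plates; LC50 and GI50 were interpolated by linear trend at −50% and 50% growth.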

P. aeruginosa ATCC 27853 = format: cell-based, Pseudomonas aeruginosa
Outline: as §1

[8] = test system: Pseudomonas aeruginosa (ATCC 27853); experiment: In vivo septicemia assay; design: species or system CD-1 mice; settings: groups of 6 mice
Procedure: Groups of 6 CD-1 (Crl.) derived male mice weighing 24±2 g were used. The mice were each inoculated intravenously (IV) with an LD90-100 of Pseudomonas aeruginosa (ATCC 27853) (9×10^6 CFU/0.5 ml/mouse) in brain heart infusion broth without 5% mucin. Compound at doses of 5, 2.5, 1, 0.5, 0.25 and 0.1 mg/kg, vehicle (0.9% NaCl, 10 ml/kg) was administered subcutaneously (SC) to test animals at 1 hour after bacterial inoculation. Also, an additional group was treated twice with compound at a dose of 5 mg/kg at 1 and 6 hours after bacterial inoculation. Mortality was recorded once daily for 7 days following the bacterial inoculation and an increase of survival of the animals by 50 percent or more (^3 50%) after the bacterial inoculation, relative to vehicle control, indicates significant antimicrobial effect. The MED (ED50) was determined by nonlinear regression using Graph-Pad Prism (Graph Pad Software, USA).
Septicaemia experiment in mice: LD90-100 of Pseudomonas aeruginosa (ATCC 27853) (9×10^6 CFU/0.5 ml/mouse IV and after 1 h Ex. 1 s.c.
Septicaemia experiment in mice: LD90-100 of Pseudomonas aeruginosa (ATCC 27853) (9×10^6 CFU/0.5 ml/mouse IV), and after 1 and 5 h Ex. 40 s.c.
Septicaemia experiment in mice: LD90-100 of Pseudomonas aeruginosa (ATCC 27853) (9×10^6 CFU/0.5 ml/mouse IV), and after 1 and 5 h Ex. 50 s.c.

[9] = average over the five P. aeruginosa strains, Mueller-Hinton broth

Row | Compound | MIC P. aeruginosa P8191900 ([2]; P8191900) [mg/L] | MIC P. aeruginosa IMP1 Livermore 3140 ([3]; IMP 1 Livermore 3140) [mg/L] | MIC P. aeruginosa P1021913 ([4]; P1021913) [mg/L] | MIC P. aeruginosa P1021903 ([5]; P1021903) [mg/L] | Average MIC (P. aeruginosa) [mg/L] | Hemolysis at 100 μg/ml [6]; 100 [%] | Cytotoxicity GI50 Hela cells (HELA cells (Acc57)) [µM] | MIC P. aeruginosa ATCC 27853 (P. aeruginosa ATCC 27853; ATCC 27853) [mg/L] | Dead ([8]; 2 × 1 mg/kg, after 1 and 5 h) | Survivors ([8]; 2 × 1 mg/kg, after 1 and 5 h) | other results
1 | CC[C@H](C)[C@@H]1NC(=O)[C@H](Cc2c[nH]c3ccccc23)NC(=O)[C@H]([C@@H](C)O)NC(=O)[C@@H]2CCCN2C(=O)[C@H]2CCCN2C(=O)[C@H](CCN)NC(=O)CNC(=O)[C@H](CCN)NC(=O)[C@H](CCN)NC(=O)[C@H](Cc2c[nH]c3ccccc23)NC(=O)[C@H](CCN)NC(=O)[C@H](CCN)NC(=O)[C@H](CCCCN)NC(=O)[C@H](CCN)NC1=O [Example 2] (cyclo(TWI[Dab]K[Dab][Dab]W[Dab][Dab]G[Dab][dP]P)) | 0.10 (≈ 0.0638 µM) | 0.24 (≈ 0.153 µM) | 0.18 (≈ 0.115 µM) | 0.16 (≈ 0.102 µM) | 0.15 | 0.3 | 50 | 0.04 (≈ 0.0255 µM) | – | – | Stability human Plasma t1/2 [1]: 5 h; Stability rat Plasma t1/2 [7]: 5 h
2 | CC[C@H](C)[C@@H]1NC(=O)[C@H](Cc2c[nH]c3ccccc23)NC(=O)[C@H]([C@@H](C)O)NC(=O)[C@@H]2CCCN2C(=O)[C@H]2CCCN2C(=O)[C@H](CCN)NC(=O)[C@H](C)NC(=O)[C@H](CCN)NC(=O)[C@H](CCN)NC(=O)[C@H](Cc2c[nH]c3ccccc23)NC(=O)[C@H](CCN)NC(=O)[C@H](CCN)NC(=O)[C@H](CCCCN)NC(=O)[C@H](CCCCN)NC1=O [Example 24] (cyclo(TWIKK[Dab][Dab]W[Dab][Dab]A[Dab][dP]P)) | – | – | – | – | – | – | – | – | – | – | Stability human Plasma t1/2 [1]: 5 h; MIC P. aeruginosa P8191900 ([2]; Mueller-Hinton broth): 0.16 mg/L (≈ 0.0994 µM); MIC P. aeruginosa IMP1 Livermore 3140 ([3]; Mueller-Hinton broth): 0.24 mg/L (≈ 0.149 µM); MIC P. aeruginosa P1021913 ([4]; Mueller-Hinton broth): 0.16 mg/L (≈ 0.0994 µM); MIC P. aeruginosa P1021903 ([5]; Mueller-Hinton broth): 0.08 mg/L (≈ 0.0497 µM); Average MIC (P. aeruginosa; [9]): 0.14 mg/L; Hemolysis at 100 μg/ml ([6]; 100 μg/ml of peptide): 0.1%; Stability rat Plasma t1/2 [7]: 5 h; MIC P. aeruginosa ATCC 27853 (P. aeruginosa ATCC 27853; Mueller-Hinton broth): 0.05 mg/L (≈ 0.0311 µM)
3 | CC[C@H](C)[C@@H]1NC(=O)[C@H](Cc2c[nH]c3ccccc23)NC(=O)[C@H]([C@@H](C)O)NC(=O)[C@@H]2CCCN2C(=O)[C@H]2CCCN2C(=O)[C@H](CCC(N)=O)NC(=O)[C@H](C)NC(=O)[C@H](CCN)NC(=O)[C@H](CCN)NC(=O)[C@H](Cc2c[nH]c3ccccc23)NC(=O)[C@H](CCN)NC(=O)[C@H](CCN)NC(=O)[C@H](CCCCN)NC(=O)[C@H](CCC(N)=O)NC1=O [Example 40] (cyclo(TWIQK[Dab][Dab]W[Dab][Dab]AQ[dP]P)) | 0.50 (≈ 0.305 µM) | 1.00 (≈ 0.611 µM) | 0.50 (≈ 0.305 µM) | 0.50 (≈ 0.305 µM) | 0.55 | 0.7 | 50 | 0.25 (≈ 0.153 µM) | 2 | 4 | Dead ([8]; 2 × 0.1 mg/kg, after 1 and 5 h): 6; Survivors ([8]; 2 × 0.1 mg/kg, after 1 and 5 h): 0; Dead ([8]; 2 × 0.3 mg/kg, after 1 and 5 h): 6; Survivors ([8]; 2 × 0.3 mg/kg, after 1 and 5 h): 0; Dead ([8]; 2 × 3 mg/kg, after 1 and 5 h): 0; Survivors ([8]; 2 × 3 mg/kg, after 1 and 5 h): 6; Dead ([8]; 2 × 10 mg/kg, after 1 and 5 h): 0; Survivors ([8]; 2 × 10 mg/kg, after 1 and 5 h): 6
4 | CC[C@H](C)[C@@H]1NC(=O)[C@H](Cc2c[nH]c3ccccc23)NC(=O)[C@H](CCC(=O)O)NC(=O)[C@@H]2CCCN2C(=O)[C@H]2CCCN2C(=O)[C@H](CCN)NC(=O)[C@H](C)NC(=O)[C@H](CCN)NC(=O)[C@H](CCN)NC(=O)[C@H](Cc2c[nH]c3ccccc23)NC(=O)[C@H](CCN)NC(=O)[C@@H](CCN)NC(=O)[C@H](CCCN)NC(=O)[C@H](CCN)NC1=O [Example 47] (cyclo(EWI[Dab][Orn][dDab][Dab]W[Dab][Dab]A[Dab][dP]P)) | 0.13 (≈ 0.0815 µM) | 0.75 (≈ 0.47 µM) | 0.50 (≈ 0.314 µM) | 0.13 (≈ 0.0815 µM) | 0.32 | 0.2 | 50 | 0.09 (≈ 0.0564 µM) | – | – | –
5 | CC[C@H](C)[C@@H]1NC(=O)[C@H](Cc2c[nH]c3ccccc23)NC(=O)[C@H]([C@@H](C)O)NC(=O)[C@@H]2CCCN2C(=O)[C@H]2CCCN2C(=O)[C@H](CCN)NC(=O)[C@H](C)NC(=O)[C@H](CCN)NC(=O)[C@H](CCN)NC(=O)[C@H](Cc2c[nH]c3ccccc23)NC(=O)[C@H](CCN)NC(=O)[C@@H](CCN)NC(=O)[C@H](CCCN)NC(=O)[C@H](CCN)NC1=O [Example 48] (cyclo(TWI[Dab][Orn][dDab][Dab]W[Dab][Dab]A[Dab][dP]P)) | 0.03 (≈ 0.0191 µM) | 0.19 (≈ 0.121 µM) | 0.13 (≈ 0.083 µM) | 0.02 (≈ 0.0128 µM) | 0.08 | 0.2 | 50 | 0.02 (≈ 0.0128 µM) | – | – | –
6 | CC[C@H](C)[C@@H]1NC(=O)[C@H](Cc2c[nH]c3ccccc23)NC(=O)[C@H]([C@@H](C)O)NC(=O)[C@@H]2CCCN2C(=O)[C@H]2CCCN2C(=O)[C@H](CO)NC(=O)[C@H](C)NC(=O)[C@H](CCN)NC(=O)[C@H](CCN)NC(=O)[C@H](Cc2c[nH]c3ccccc23)NC(=O)[C@H](CCN)NC(=O)[C@@H](CCN)NC(=O)[C@H](CCCN)NC(=O)[C@H](CCN)NC1=O [Example 49] (cyclo(TWI[Dab][Orn][dDab][Dab]W[Dab][Dab]AS[dP]P)) | 0.06 (≈ 0.0386 µM) | 0.50 (≈ 0.322 µM) | 0.25 (≈ 0.161 µM) | 0.03 (≈ 0.0193 µM) | 0.17 | 0.1 | 50 | 0.03 (≈ 0.0193 µM) | – | – | –
7 | Example 50: backbone-cyclized; P1-P12 Glu-Trp-Ile-Gln-Lys-Dab-Dab-Ser-Dab-Dab-Ala-Ser; template DPro-LPro; SEQ ID NO: 50 (cyclo(EWIQK[Dab][Dab]S[Dab][Dab]AS[dP]P); SMILES CC[C@H](C)[C@@H]1NC(=O)[C@H](Cc2c[nH]c3ccccc23)NC(=O)[C@H](CCC(=O)O)NC(=O)[C@@H]2CCCN2C(=O)[C@H]2CCCN2C(=O)[C@H](CO)NC(=O)[C@H](C)NC(=O)[C@H](CCN)NC(=O)[C@H](CCN)NC(=O)[C@H](CO)NC(=O)[C@H](CCN)NC(=O)[C@H](CCN)NC(=O)[C@H](CCCCN)NC(=O)[C@H](CCC(N)=O)NC1=O) | – | – | – | – | – | – | 50 | – | 5 | 1 | MIC P. aeruginosa P8191900 ([2]; Mueller-Hinton broth): 0.13 mg/L; MIC P. aeruginosa IMP1 Livermore 3140 ([3]; Mueller-Hinton broth): 2.00 mg/L; MIC P. aeruginosa P1021913 ([4]; Mueller-Hinton broth): 0.50 mg/L; MIC P. aeruginosa P1021903 ([5]; Mueller-Hinton broth): 0.06 mg/L; Dead ([8]; 2 × 0.1 mg/kg, after 1 and 5 h): 6; Survivors ([8]; 2 × 0.1 mg/kg, after 1 and 5 h): 0; Dead ([8]; 2 × 0.3 mg/kg, after 1 and 5 h): 6; Survivors ([8]; 2 × 0.3 mg/kg, after 1 and 5 h): 0; Dead ([8]; 2 × 3 mg/kg, after 1 and 5 h): 3; Survivors ([8]; 2 × 3 mg/kg, after 1 and 5 h): 3; Dead ([8]; 2 × 10 mg/kg, after 1 and 5 h): 0; Survivors ([8]; 2 × 10 mg/kg, after 1 and 5 h): 6; Average MIC (P. aeruginosa; [9]): 0.56 mg/L; MIC P. aeruginosa ATCC 27853 (P. aeruginosa ATCC 27853; Mueller-Hinton broth): 0.09 mg/L
8 | Gentamycin [reference compound] | – | – | – | – | – | – | – | – | 1 | 5 | Dead ([8]; 1 mg/kg, 1 h after inoculation): 0; Survivors ([8]; 1 mg/kg, 1 h after inoculation): 6
